Here are results for 19 compounds from patent US7993662B2, “Transparent solid oil cosmetics” (Kokyu Alcohol Kogyo Co., Ltd., priority 2005, dated 2011).

What all share (assay type): physicochemical
Series [1] in a line: Evaluation of hardness (EZ-Test-20N hardness meter, needle penetration). As to conditions: 25° C. Here is the method: A sample such as a solid or an oil-based cosmetic was stored in a temperature-controlled room at 25° C. for at least 1 day, and measurement was carried out using an EZ-Test-20N hardness meter (manufactured by Shimadzu Corporation). The needle diameter was 1.0 mmφ, and the maximum value measured for the stress (N) at a needle penetration depth of 10 mm with a test speed of 10 mm/min was defined as the hardness.
Measurement was carried out using an EZ-Test-20N hardness meter (manufactured by Shimadzu Corporation). The needle diameter was 1.0 mmφ, and the maximum value measured for the stress (N) at a needle penetration depth of 10 mm with a test speed of 10 mm/min was defined as the hardness.

Series [2] in a line: Exudation (45° C. for 2 hours, then 25° C. for 3 hours, visual). Set-up: key: A: When the amount of exudation was small and there were no oil droplets; B: when a slight degree of exudation was observed but the exudation went back in the temperature-controlled room at 25° C.; when the amount of exudation was large and the exudation did not go back even in the temperature-controlled room at 25° C. How it is done: After the sample stored in the 50 mL glass container as described in the above-mentioned sample preparation method was stored in a temperature-controlled room at 45° C. for 2 hours, the amount of exudation on the surface of the sample was visually evaluated. The extent to which the exudation went back when the sample was returned to the temperature-controlled room at 25° C. and stored for 3 hours was also evaluated.

Series [3] in a line: Miscibility evaluation (visual, 100° C. to 110° C.). Conditions: result in words. How it is done: Sample preparation method: Predetermined amounts (mass %) of all components were weighed, dissolved at a temperature of 100° C. to 110° C. as appropriate, stirred until uniform, then cooled to 80° C. to 90° C. while stirring, poured into a preheated 50 mL glass container, transferred to a temperature-controlled room at 45° C., stored for 1 hour while gradually cooling, further transferred to a temperature-controlled room at 25° C., and stored for at least 1 day, thus giving a sample. Evaluation Methods for Various Characteristics (1) Miscibility Evaluation Method
The miscibility at a temperature of 100° C. to 110° C. when preparing the sample was evaluated visually as a degree of difficulty. One that was easily miscible was evaluated as ‘A’, one that was slightly difficulty miscible was evaluated as ‘B’, and one that was difficulty miscible was evaluated as ‘C’.

Where [4] appears, read: UNICLEAR 100VG: 30% with 70% of the listed component.
[5] abbreviates: Versamid 930: 30% with 70% of the listed component.
The mark [6] stands for this setting: […] A200V: 30% with 70% of the listed component.

`CCCCCCCCCCCCCCCCOC(=O)C(CC)CCCC` (stereo not shown) [CEH, Cetyl ethylhexanoate] yielded a Hardness in series [1] (setting [4]) of 0.70 N. In addition, the Exudation properties entry in series [2] (setting [4]) is on record as “A”.

Consider `CC(C)CCCCCCCCCCCCCCCOC(=O)CC(O)C(=O)OCCCCCCCCCCCCCCCC(C)C` (stereo not shown) [DIS, Diisostearyl malate], for which the results for the Hardness in series [1] (setting [4]) and in series [1] (setting [5]) were 0.80 N and 0.12 N, respectively. Moreover, the Exudation properties result in series [2] (setting [4]) and in series [2] (setting [5]) was “A” in each case.

As for `CCCCCCCCCCCCC(CO)CCCCCCCCCC` (stereo not shown) [Example 24SP, Decyltetradecanol], the Hardness in series [1] (setting [6]) was determined as 0.05 N. In addition, in series [2] (setting [6]), the Exudation properties result is reported as “C”.

`CCCCCCCCCCCCCCC(CO)CCCCCCCCCCCC` (stereo not shown) [Example 28SP, Dodecylhexadecanol]: in series [1] (setting [6]), the Hardness was determined as 0.09 N. The Exudation properties entry in series [2] (setting [6]) is “C”.

In the case of `CC(C)CCCCCCCCCCCCCCC(=O)OC(C)C` [IPIS, Isopropyl isostearate], the Hardness in series [1] (setting [4]) is 0.60 N. Besides, the Exudation properties result in series [2] (setting [4]) is given as “A”.

In series [1] (setting [4]), `CC(C)CCCCCCCCCCCCCCCOC(=O)CCCCCCCCCCCCCCC(C)C` [ISIS, Isostearyl isostearate] returned a Hardness of 0.05 N. The Exudation properties entry in series [2] (setting [4]) is listed as “B”.

`CC(C)CCCCCCCCCCOC(=O)CCCCCC(C)C` [KAK139, Isotridecyl isononanoate] had a Hardness in series [1] (setting [4]) of 0.50 N. Moreover, in series [2] (setting [4]), the Exudation properties entry was “A”.

In series [1] (setting [4]), `CCCCC(CC)C(=O)OCC(C)(C)COC(=O)C(CC)CCCC` (stereo not shown) [NDO, Neopentylglycol diethylhexanoate] gave a Hardness of 0.90 N. Also, the Exudation properties result in series [2] (setting [4]) was “A”.

`CC(C)CCCCCCCCCCCCCCC(=O)OCC(COC(=O)CCCCCCCCCCCCCCC(C)C)(COC(=O)CCCCCCCCCCCCCCC(C)C)COC(=O)CCCCCCCCCCCCCCC(C)C` [PTI, Pentaerythrityl tetraisostearate] showed a Hardness in series [1] (setting [4]) of 0.01 N. The Exudation properties entry in series [2] (setting [4]) is listed as “B”.

In series [1] (setting [4]), `CCCCC(CC)C(=O)OCC(COC(=O)C(CC)CCCC)(COC(=O)C(CC)CCCC)COC(=O)C(CC)CCCC` (stereo not shown) [PTO, Pentaerythrityl tetraethylhexanoate] registered a Hardness of 0.04 N. Besides, the Exudation properties result in series [2] (setting [4]) is recorded as “B”.

On to `Nc1cc(S(=O)(=O)[O-])cc2cc(S(=O)(=O)[O-])c(N=Nc3ccccc3)c(O)c12.[Na+].[Na+]` [Red. No. 227], for which, in series [3], the “miscibility with the base” value is “particularly excellent”.

`CC(C)CCCC(C)CCCC(C)CCCCC(C)CCCC(C)CCCC(C)C` (stereo not shown) [SQ, Squalane]: in series [1] (setting [4]), the Hardness is recorded as 0.02 N. Also, the Exudation properties entry in series [2] (setting [4]) is listed as “A”.

Take `CC(C)CCCCCCCCCCCCCCC(=O)OCC(COC(=O)CCCCCCCCCCCCCCC(C)C)OC(=O)CCCCCCCCCCCCCCC(C)C` [TISG, Triisostearin]: the Hardness in series [1] (setting [4]) is on record as 0.03 N. In series [2] (setting [4]), the Exudation properties entry is on record as “B”.

In the case of `CCCCC(CC)C(=O)OCC(COC(=O)C(CC)CCCC)OC(=O)C(CC)CCCC` (stereo not shown) [TOG, Triethylhexanoin], the Hardness in series [1] (setting [4]) is recorded as 0.06 N. Besides, the Exudation properties result in series [2] (setting [4]) is on record as “B”.

As for `CCC(COC(=O)CCCCCCCCCCCCCCC(C)C)(COC(=O)CCCCCCCCCCCCCCC(C)C)COC(=O)CCCCCCCCCCCCCCC(C)C` [TTI, Trimethylolpropane triisostearate], the Hardness in series [1] (setting [4]) amounted to 0.01 N; in series [1] (setting [6]) it was 0.02 N. Also, the Exudation properties entry in series [2] (setting [4]) and in series [2] (setting [6]) was “B” throughout.

On to Polyglyceryl-2 diisostearate [PGIS22], for which the Hardness is reported as 0.33 N in series [1] (setting [4]) and 3.00 N in series [1] (setting [5]). Besides, the Exudation properties entry in series [2] (setting [4]) and in series [2] (setting [5]) was “A” in each case.

In series [1] (setting [4]), Polyglyceryl-2 isostearate [PGIS21] displayed a Hardness of 0.35 N. For the same compound, the Exudation properties result in series [2] (setting [4]) is given as “A”.

Compound Polyglyceryl-2 triisostearate [PGIS23] returned a Hardness in series [1] (setting [4]) of 0.50 N. The Exudation properties result in series [2] (setting [4]) is “A”.

As to “Trimethylolpropane triethylhexanoate [TTO]”, the Hardness in series [1] (setting [6]) came to 0.03 N. Besides, the Exudation properties result in series [2] (setting [6]) was “B”.
